Assay results reported in patent publication US20180008593A1 (Purdue Pharma L.P., priority 2005, published 2018).
“And” between values parts separate entries of the source, which are not always exact repeats. Equal entries are not always repeated. Where two headings read alike, the source gives them in different places.

Tests used:
[1] = tested on: patients with severe chronic pain; assay: Laxative intake / mean laxative dose, Example 1; type: in vivo, human
Procedure: d) Laxative intake/mean laxative dose, which was calculated from the respective case report forms (CRF) entries. An analysis of the mean laxative dose during the last seven days was performed for patients who took only one laxative during the entire study. Entries from the medication record CRF page were used for all calculations (laxatives were identified by the WHO ATC Code A06A). For laxative intake number of days with laxation during the last 7 days and the percentage of days with laxation during the last 7 days were calculated for each study visit. In addition, the percentage of days with laxation during the whole maintenance phase and during the follow-up phase was calculated.

[2] = tested on: experimental human pain model, healthy volunteers; assay: Pain-related evoked potentials (EEG) after CO2 stimulation of the nasal mucosa, Example 4; type: in vivo; settings: for Magnitude of reduction of amplitude P1N1 at C4 compared to baseline: 60% CO2
Procedure: This was a single site, single dose, double blind, placebo-controlled, 5-treatment, 5-period, randomized, balanced crossover study in healthy adult male and female subjects. […] Subjects were allocated each of the 5 treatments described in the synopsis according to a random allocation schedule (RAS). There was a 7-day washout period
Analgesic effects were assessed by means of an experimental human pain model based on the chemosomatosensory pain-related cortical potentials (CSSEPs) and pain-ratings after specific phasic nociceptive stimulation of the nasal mucosa with gaseous CO2. In addition, intensity estimates of tonic pain produced by stimulation of the nasal mucosa with dry air at controlled flow and temperature were employed.
Within the present pain model, the following were used as indicators of analgesia: • post-treatment decrease in pain-ratings and/or • post-treatment decrease in amplitudes of pain-related evoked potentials and/or • post-treatment increase in latencies of pain-related evoked potentials, relative to the pretreatment values.
1. Base-to-peak amplitudes P1, N1 and P2, peak-to-peak amplitudes P1 N1 and N1P2 of pain related evoked potentials 2. Latencies P1, N1 and P2 of pain-related evoked potentials 3. Intensity estimates of phasic (C02-) pain 4. Intensity estimates of tonic pain
(§1) In the first 20 minutes, 40 phasic CO2-stimuli were applied (20 stimuli at a concentration of 70% and 20 at a concentration of 60%, interstimulus interval 30 s). In response to these stimuli, pain-related potentials and subjective intensity estimates were recorded.
(§2) CO2-stimuli were mixed in a constantly flowing air stream with controlled temperature (36.5° C.) and humidity (80% relative humidity) presented to the left nostril (stimulus duration 200 ms, interstimulus interval 30 s). […] During intervals between phasic stimuli subjects performed a simple tracking task on a video screen. Using a joystick, they had to keep a small square inside a larger one that randomly moved around.
The EEG was recorded from 5 positions of the international 10/20 system (Cz, C3, C4, Fz and Pz; see FIG. 40) referenced to linked earlobes (A1+A2). Possible eye blink artifacts were monitored from an additional site (Fp2/A1+A2). Stimulus linked EEG segments of 2040 ms duration were sampled with a frequency of 250 Hz (band pass 0.2-30 Hz, pre-stimulus period 512 ms). The recorded analog EEG segments were then converted to digital and filed electronically. The average value for each recording position was separately calculated, discarding all eye blink contaminated records. By this procedure pain-related evoked potentials were obtained in response to the painful CO2 stimuli. Base to peak amplitudes P1, N1 and P2, the peak to peak amplitudes P1 N1 and N1 P2 and the latencies of P1, […] and P2 were measured. Wherever the time of measurement was used in the data analysis, the mid-time of a session was taken. FIG. 40 presents the components of the pain-related evoked potentials.

[3] = tested on: experimental human pain model, healthy volunteers; assay: Intensity estimates of phasic (CO2) pain, Example 4; type: in vivo; settings: 70% CO2; 45 mg naloxone with 20 mg oxycodone
Procedure: as §1, with “recorded. Subsequently, tonic pain was induced for 16 minutes and subjects had to rate the intensity of the dull, burning pain.” for “recorded.”
as §2
Within 3-4 seconds after presentation of each CO2 stimulus, subjects compared the perceived intensity to a standard stimulus (70% v/v CO2) presented at the beginning of the first session of each trial day. […] The intensity of the standard stimulus was defined as 100 Estimation Units (EU). The mid-time of a session was regarded as time of measurement. Intensity estimates of the CO2 stimuli (60% and 70%) were evaluated separately for each concentration. On a trial day, the ratings of each post-treatment session were evaluated relative to base line values. […]

[4] = tested on: patients with severe chronic pain of tumour and non-tumour origin; settings: for Mean Pain, Mean (SD) V3: V3 end of titration; for Mean Pain, Mean (SD) V5: V5 end of maintenance
Procedure: The pre-randomization phase consisted of screening and titration/run-in. Following screening, patients entered either a titration or run-in period. Patients with insufficient pain pre-treatment entered a minimum 2-week titration period and were individually titrated and stabilized at an oxycodone dose of 40 mg, 60 mg or 80 mg per day. Patients on stable oxycodone pre-treatment at screening (between 40-80 mg/day) and with concomitant constipation, entered a 1 week run-in period and were eligible for the maintenance phase without prior titration. For all patients, the dose of oxycodone could be adjusted during titration or run-in and investigators maintained compulsory telephone contact every 2nd day to assess pain control and make dose changes.
(§3) a) Mean Pain during the last 7 days prior to each visit, based on the patient's twice-daily assessment of pain intensity using the 0-100 numerical analogue scale (NAS) (0=no pain and 100=worst imaginable pain). Mean Pain was calculated for each study visit as the mean value of the daily mean values of all patient's diary entries from the last 7 days. b) Mean bowel function: patient's assessment, at each study visit, of bowel function during the last 7 days prior to each visit. Mean bowel function was calculated from the mean of the three 0-100 NAS scores: ease of defecation (0=easy/no difficulty, 100=severe difficulty), feeling of incomplete bowel evacuation (0=not at all, 100=very strong), and judgment of constipation (0=not at all, 100=very strong). Secondary efficacy variables of interest included among others: c) Global assessment of efficacy, tolerability and preference. […] Tolerability was measured using the same 0 to 7 numerical analogue scale.

[5] = tested on: bowel function of pain patients on oxycodone with need for laxatives; settings: for Mean Bowel Function Score, Mean (SD) V3: V3 end of titration; for Mean Bowel Function Score, Mean (SD) V5: V5 end of maintenance
Procedure: as §3
Mean bowel function was calculated for each study visit from the mean of the three NAS values ease/difficulty of defecation, feeling of incomplete bowel evacuation and judgment of constipation.
In addition, two-sided 95% CIs (CI, confidence interval) for the difference in means between the treatment groups were provided. […] These analyses were performed for the ITT and PP populations.
The parameter estimates derived were taken to display a surface plot of the whole dose range investigated. Moreover, a contour plot of the bowel function with a granulation of 10 was performed.

[6] = oral administration; extensive first-pass-metabolism; cited from earlier work
[7] = tested on: rats physically dependent on oxycodone; assay: Naloxone-precipitated withdrawal in oxycodone-dependent rats (Gellert-Holtzman global rating, graded and checked signs), Example 5; settings: i.v.
Procedure: Rats were implanted with Alzet 2ML 1 osmotic minipumps infusing either saline vehicle or oxycodone at 1.5 mg/kg/h for 7 days as described above. […] The complete parametric design for oxycodone-pump implanted rats required testing rats with vehicle:vehicle and oxycodone:vehicle.
Signs of physical dependence were evaluated in rats intravenously administered the drugs, and then immediately placed back in their home cages for a 60-min observation period. […] The table is divided into Graded Signs and Checked Signs, and assigned a weighted factor. The rats were evaluated for these signs during the 60 min observation period, the scores were collected, and a combined Global Score was assigned to each rat. Data were analyzed by combining the graded signs of escape attempts and wet-dog shakes into a single score of Grades Signs during each 15-min interval for 60-min. Checked signs were analyzed during each 15-min interval for 60-min.
The rats were assessed in 15-min intervals for both graded and checked signs for a total of 60 min. The graded signs of escape attempts and wet-dog shakes were tallied, whereas, checked signs such as diarrhea, profuse salivation, chromodactorrhea, etc. were noted as being either absent or present during the 15-min period. Both graded and checked signs were assigned a numeric score based on studies by Gellert and Holtzman (1978), and the total value for each animal was added to provide a global rating.
The incidence of checked signs during opioid withdrawal was also analyzed statistically within each time interval at 0-15, 15-30, 30-45 and 45-60 minutes. The data was analyzed within each time interval using contingency table Person's Chi Square analysis (Sigma Stat Statistical Software, SPSS, Inc.) to evaluate the X2 value. X2 values exceeding the critical value for 7 of 14.1 were considered statistically significant intervals for that checked behavioral sign.

[8] = naloxone 10 mg/day + oxycodone 40-80 mg/day
[9] = naloxone 20 mg/day + oxycodone 40-80 mg/day
[10] = naloxone 40 mg/day + oxycodone 40-80 mg/day
[11] = ITT non-missing, naloxone 10 mg/day + oxycodone 40-80 mg/day
[12] = ITT non-missing, naloxone 20 mg/day + oxycodone 40-80 mg/day
[13] = ITT non-missing, naloxone 40 mg/day + oxycodone 40-80 mg/day
[14] = PP, naloxone 20 mg/day + oxycodone 40-80 mg/day
[15] = PP, naloxone 40 mg/day + oxycodone 40-80 mg/day
[16] = ITT/LOCF, naloxone 10 mg/day + oxycodone 40-80 mg/day
[17] = ITT/LOCF, naloxone 20 mg/day + oxycodone 40-80 mg/day
[18] = ITT/LOCF, naloxone 40 mg/day + oxycodone 40-80 mg/day

C=CCN1CC[C@]23c4c5ccc(O)c4O[C@H]2C(=O)CC[C@@]3(O)[C@H]1C5 [Naloxone, naloxone]
Mean number of days with laxative intake during the last 7 days prior to the end of maintenance [1, 8]: 2.6±3.34 | Percentage of days (mean±SD) with laxation during the entire maintenance phase [1, 8]: 36.5±33.50 | Mean number of days with laxative intake during the last 7 days prior to the end of maintenance [1, 9]: 2.0±3.14 | Percentage of days (mean±SD) with laxation during the entire maintenance phase [1, 9]: 31.3±41.38 | Mean number of days with laxative intake during the last 7 days prior to the end of maintenance [1, 10]: 1.6±2.93 | Percentage of days (mean±SD) with laxation during the entire maintenance phase [1, 10]: 27.8±41.25 | Magnitude of reduction of amplitude P1N1 at C4 compared to baseline ([2]; 20 mg oxycodone in combination with 5 mg naloxone): 24.5% | Magnitude of reduction of amplitude P1N1 at C4 compared to baseline ([2]; 20 mg oxycodone in combination with 15 mg naloxone): 23.7% | Dose of naloxone PR that does not significantly influence the analgesic effect (EEG) of oxycodone ([2]; based on 20 mg oxycodone PR): below 15 mg | Intensity estimates of phasic pain stimuli, naloxone effect [3]: seemed to antagonize partly the oxycodone effect | Mean Pain, Mean (SD) V3 [4, 11]: 35.9 (16.3) | Mean Pain, Mean (SD) V3 [4, 12]: 39.8 (18.4) | Mean Pain, Mean (SD) V5 [4, 11]: 37.2 (17.3) | Mean Pain, Mean (SD) V5 [4, 12]: 37.5 (20.5) | Mean Pain, Mean (SD) V5 [4, 13]: 38.7 (17.0) | Mean Pain, Mean (SD) V3 [4, 14]: 40.1 (20.0) | Mean Pain, Mean (SD) V3 [4, 15]: 39.0 (16.1) | Mean Pain, Mean (SD) V5 ([4]; PP, naloxone 10 mg/day + oxycodone 40-80 mg/day): 38.8 (18.4) | Mean Pain, Mean (SD) V5 [4, 14]: 36.1 (19.5) | Mean Pain, Mean (SD) V5 [4, 15]: 38.7 (16.6) | Mean Bowel Function Score, Mean (SD) V3 [5, 11]: 53.5 (22.2) | Mean Bowel Function Score, Mean (SD) V3 [5, 12]: 51.3 (21.6) | Mean Bowel Function Score, Mean (SD) V3 [5, 13]: 48.2 (20.6) | Mean Bowel Function Score, Mean (SD) V5 [5, 11]: 40.3 (23.1) | Mean Bowel Function Score, Mean (SD) V5 ([5]; ITT non-missing, naloxone 10 mg/day + oxycodone 40-80 mg/day, listed as naloxone): 40.3 (±23.09) and 40.3 (±23.1) | Mean Bowel Function Score, Mean (SD) V5 [5, 12]: 31.3 (25.8) | Mean Bowel Function Score, Mean (SD) V5 ([5]; ITT non-missing, naloxone 20 mg/day + oxycodone 40-80 mg/day, listed as naloxone): 31.3 (±25.82) and 31.3 (±25.8) | Mean Bowel Function Score, Mean (SD) V5 [5, 13]: 26.1 (25.1) | Mean Bowel Function Score, Mean (SD) V5 ([5]; ITT non-missing, naloxone 40 mg/day + oxycodone 40-80 mg/day, listed as naloxone): 26.1 (±25.08) and 26.1 (±25.1) | Mean Bowel Function Score, Mean (SD) V3 [5, 16]: 53.6 (22.8) | Mean Bowel Function Score, Mean (SD) V3 [5, 17]: 49.9 (23.1) | Mean Bowel Function Score, Mean (SD) V3 [5, 18]: 47.7 (20.5) | Mean Bowel Function Score, Mean (SD) V5 [5, 16]: 40.1 (24.7) | Mean Bowel Function Score, Mean (SD) V5 [5, 17]: 33.2 (28.4) | Mean Bowel Function Score, Mean (SD) V5 [5, 18]: 26.5 (25.7) | Mean (±SD) bowel function ([5]; ITT, Visit 4, naloxone 10 mg/day + oxycodone 40-80 mg/day): 42.1 (±25.53) | Mean (±SD) bowel function ([5]; ITT, Visit 4, naloxone 20 mg/day + oxycodone 40-80 mg/day): 34.2 (±30.04) | Mean (±SD) bowel function ([5]; ITT, Visit 4, naloxone 40 mg/day + oxycodone 40-80 mg/day): 27.9 (±22.68) | Mean (±SD) bowel function ([5]; ITT, end of follow-up (oxycodone only), former 40 mg naloxone group): 42.4 (±23.19) | Mean (±SD) bowel function ([5]; PP, end of maintenance, naloxone 10 mg/day + oxycodone 40-80 mg/day): 39.4 (±23.44) | Mean (±SD) bowel function ([5]; PP, end of maintenance, naloxone 20 mg/day + oxycodone 40-80 mg/day): 29.8 (±29.29) | Mean (±SD) bowel function ([5]; PP, end of maintenance, naloxone 40 mg/day + oxycodone 40-80 mg/day): 29.6 (±28.34) | Oral bioavailability [6]: < 3% | Checked signs of withdrawal ([7]; oxycodone-pump rats, 60-min observation): the rats underwent robust withdrawal | Graded withdrawal signs (escape attempts, wet-dog shakes) ([7]; oxycodone-pump rats, first 15-min): robust withdrawal that was short-lasting that ended within the first 15-min | Graded withdrawal signs (escape attempts, wet-dog shakes) ([7]; oxycodone-pump rats, later intervals up to 45- to 60-min): no longer significantly present throughout the remainder of the experiment | Signs of withdrawal ([7]; vehicle-pump rats): no signs of withdrawal were observed
